The values below come from PMC6540907, “The nuclear export inhibitor aminoratjadone is a potent effector in extracellular-targeted drug conjugates” (Chemical Science, 2019).

Like-named read-outs stand apart in the source and are kept apart here. No end group written: not given here.

For experiment [1], the system named is panel of cancer cell lines. Briefly: Antiproliferative activity of drug-free LHRH carriers in a panel of cancer cell lines. The settings on record: KB-3.1, A-549, SK-OV-3, MCF-7. Type of experiment: cell-based, human. From the text: Luteinizing hormone releasing hormone (LHRH)-based carriers were selected for this purpose, because it has been shown that several cancer cell types overexpress receptors for LHRH, a peptide-hormone involved in regulation of the sex glands of males and females.[25],[26],[29],[82]–[84] We synthesized three novel derivatives of LHRH that bear azido-ornithine as […] amino acid of the decapeptide core structure instead of the glycine residue found in the natural peptide (Fig. 8). As the importance of the newly introduced stereocenter was unclear, both diastereoisomers L-Orn-N3-LHRH and D-Orn-N3-LHRH were prepared. An additional analog, D-Orn-N3-Gose, was based on the synthetic LHRH analogue goserelin, that was reported to have higher affinity for the LHRH-receptor[85] due to a hydrazine carboxamide in the C-terminal position. […] Next, their antiproliferative activities were evaluated in a panel of cancer cell lines, in order to assess a contribution of the drug-free targeting moiety to bioactivity. […] The conjugates were evaluated for their antiproliferative activity against the LHRH-receptor-positive lung cancer cell line A-549 (Table 3). […]
serial dilutions of the test compound were given to 120 µL of suspended cells (50.000/mL) in wells of 96-well plates. After 5 days of incubation growth inhibition (IC50) was determined using an MTT assay.9 […]

A further experiment concerns PC-3. Also on record: method as in Köster et al.10. The settings on record: PC-3 human prostate carcinoma; ref Köster et al.10; read-out: Antiproliferative activity IC50; cited from earlier work.
Another experiment has as its system KB-V1. Details: method as in Köster et al.10. The settings on record: KB-V1 multi-drug-resistant human cervix carcinoma; ref Köster et al.10; read-out: Antiproliferative activity IC50; cited from earlier work.
The next experiment has as its target CRM1 (Homo sapiens, UniProt O14980). Description: Nuclear export inhibition, fluorescent translocation biosensor in recombinant HeLa cells. Also on record: This cellular assay uses HeLa cells that express a recombinant fusion protein; endogenous in cells; host or cells: HeLa cells stably expressing the NLS-GST-GFP-RevNES translocation biosensor (HeLaRevBio). Type of experiment: cell-based. The settings on record: 1 h incubation.

The test system of a further experiment is K-562. Also on record: method as in Köster et al.10. The settings on record: K-562 human chronic myelogenous leukemia; ref Köster et al.10; read-out: Antiproliferative activity IC50; cited from earlier work.
The test system of experiment [2] is L-929. Also on record: method as in Köster et al.10. The settings on record: L-929 murine fibroblast; ref Köster et al.10; read-out: Antiproliferative activity IC50; cited from earlier work.
Experiment [3] relates to KB-3.1. Details: method as in Köster et al.10. The settings on record: KB-3.1 human cervix carcinoma; ref Köster et al.10; read-out: Antiproliferative activity IC50; cited from earlier work.
Experiment [4] has as its system L-929. Description: Cell proliferation assay (MTT, 5 days). Type of experiment: cell-based, murine. As to the method:
(§1) Biological evaluation of the compounds […]
(§2) serial dilutions of the test compound were given to 120 µL of suspended cells (50.000/mL) in wells of 96-well plates. After 5 days of incubation growth inhibition (IC50) was determined using an MTT assay.9
(§3) Table S1:Medium conditions for different cell types.
(§4) Cell type Medium Additives
(§5) L-929 (DSMZ ACC 2) DME medium (high glucose) (Gibco) 10% fetal calf serum (Gibco) SKOV-3 DSMZ ATCC HTB Mc Coys-Medium (Gibco) 10% fetal calf serum (Gibco) […]
A549 (DSMZ ACC 107) DME medium (high glucose) (Gibco) 10% fetal calf serum (Gibco) KB 3.1 (DSMZ ACC 158) DME medium (high glucose) (Gibco) 10% fetal calf serum (Gibco) Ratjadone Compound Antiproliferative activity IC50 [nM]
KB-3.1: human cervix carcinoma, KB-V1: multi-drug-resistant human cervix carcinoma, K-562: human chronic myelogenous leukemia cell, PC-3: human prostate carcinoma, L-929: murine fibroblast
Figure S8: Structures of Ratjadone A-D and their antiproliferative activity (IC50 values in nM). Data published by Köster et al.10

The subject of experiment [5] is KB-3.1. Description: cells. Type of experiment: cell-based, human. As to the method:
as §1, §2, §3, §4, §5
(§6) A549 (DSMZ ACC 107) DME medium (high glucose) (Gibco) 10% fetal calf serum (Gibco)

The next experiment deals with SK-OV-3. Briefly: cells. It counts as cell-based, human. The settings on record: Homo sapiens. How it is done: as §1, §2, §3, §4, §5, §6
In the next experiment the test system is MCF-7. Description: cells. It counts as cell-based, human. The settings on record: Homo sapiens. As to the method:
as §1, §2, §3, §4, §5, §6

A further experiment relates to A-549. Description: cells. Type of experiment: cell-based, human. The settings on record: Homo sapiens. As to the method:
as §1, §2, §3, §4, §5, §6

[6] abbreviates: nuclear export inhibition IC50, HeLa cells expressing translocation biosensor.
Where [7] appears, read: Mus musculus, L929, read-out: Antiproliferative activity IC50, L-929 murine fibroblast.
Setting [8] is: Homo sapiens, KB 3-1, read-out: Antiproliferative activity IC50, KB-3.1 human cervix carcinoma.
Where [9] appears, read: SK-OV-3, read-out: Antiproliferative activity IC50.
Where [10] appears, read: MCF7, read-out: Antiproliferative activity IC50, MCF-7 human breast carcinoma.
[11] abbreviates: A549, read-out: Antiproliferative activity IC50, A-549 human lung carcinoma.
[12] abbreviates: read-out: Antiproliferative activity IC50, L-929 murine fibroblast.

CRM1, sequence (O14980 whole entry, the tested form may be a part): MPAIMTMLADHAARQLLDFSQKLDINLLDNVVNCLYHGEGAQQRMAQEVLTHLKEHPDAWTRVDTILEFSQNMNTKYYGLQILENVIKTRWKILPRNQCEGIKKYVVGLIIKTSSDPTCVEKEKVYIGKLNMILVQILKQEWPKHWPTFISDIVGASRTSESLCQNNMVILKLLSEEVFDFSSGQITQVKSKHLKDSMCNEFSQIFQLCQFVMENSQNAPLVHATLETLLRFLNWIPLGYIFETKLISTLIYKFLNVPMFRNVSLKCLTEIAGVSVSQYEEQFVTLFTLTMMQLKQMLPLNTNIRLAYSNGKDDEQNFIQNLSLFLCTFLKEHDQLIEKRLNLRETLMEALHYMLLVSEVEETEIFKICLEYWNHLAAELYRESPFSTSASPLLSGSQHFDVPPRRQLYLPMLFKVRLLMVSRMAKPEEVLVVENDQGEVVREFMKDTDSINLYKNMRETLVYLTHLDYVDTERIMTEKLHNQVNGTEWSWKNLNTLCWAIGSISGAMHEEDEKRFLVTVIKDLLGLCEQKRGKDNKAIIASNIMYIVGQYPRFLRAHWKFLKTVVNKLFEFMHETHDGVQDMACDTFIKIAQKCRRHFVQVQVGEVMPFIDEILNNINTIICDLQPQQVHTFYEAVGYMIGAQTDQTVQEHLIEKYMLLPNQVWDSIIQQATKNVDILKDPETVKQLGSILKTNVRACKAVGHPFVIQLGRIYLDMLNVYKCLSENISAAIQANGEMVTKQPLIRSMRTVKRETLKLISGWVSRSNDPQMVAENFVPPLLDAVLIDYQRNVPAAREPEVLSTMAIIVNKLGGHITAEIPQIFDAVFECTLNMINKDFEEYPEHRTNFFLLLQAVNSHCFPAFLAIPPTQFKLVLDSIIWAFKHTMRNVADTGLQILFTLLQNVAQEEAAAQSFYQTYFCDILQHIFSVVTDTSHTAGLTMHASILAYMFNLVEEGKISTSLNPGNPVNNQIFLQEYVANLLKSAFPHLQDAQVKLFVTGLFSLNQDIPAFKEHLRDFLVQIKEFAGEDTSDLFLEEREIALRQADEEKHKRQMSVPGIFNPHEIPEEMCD

With “LHRH: luteinizing hormone releasing hormone, peptide hormone (QHWSYGLRPG-NH2; not fully specified (residue 1); ends and bridges not checked; UniProt P01148 24-33, looked up) [reference compound]”, in experiment [1], the “antiproliferative activity of the drug-free targeting moiety” value was “no antiproliferative activity”.
For `CC=CC1OC(C(O)C=CC=C(C)CC(C)C=C(C)C=CC2CC=CC(=O)O2)CC(O)C1C` (single isomer, unassigned; (+)) [Compound 1, (+)-ratjadone A, reference compound], the IC50 was 0.08 nM in the experiment on PC-3; 0.15 nM in the experiment with KB-V1; 1.2 nM at CRM1 (HeLa cells expressing translocation biosensor, read-out: nuclear export inhibition IC50); 0.3 nM in the experiment on K-562; 0.15 nM in the experiment on L-929 [2]; 0.3 nM in the experiment with KB-3.1 [3]. The IC50 in the experiment with L-929 [4] (Mus musculus, L929, L-929 murine fibroblast, read-out: Antiproliferative activity IC50) was determined as 0.68 nM; in the experiment with KB-3.1 [5] (KB 3-1, KB-3.1 human cervix carcinoma, read-out: Antiproliferative activity IC50), 0.46 nM; in the experiment on SK-OV-3 (SK-OV-3, SK-OV-3 human ovarian carcinoma, read-out: Antiproliferative activity IC50), 0.24 nM; in the experiment on MCF-7 (MCF7, MCF-7 human breast carcinoma, read-out: Antiproliferative activity IC50), 0.11 nM; in the experiment with A-549 (A549, A-549 human lung carcinoma, read-out: Antiproliferative activity IC50) it was 0.15 nM.
For `C/C=C/[C@@H]1O[C@H]([C@@H](O)/C=C/C=C/C[C@@H](C)/C=C(\C=C\[C@H]2CC=CC(=O)O2)CC)C[C@@H](O)[C@@H]1C` [Compound 3, Ratjadone C], the IC50 in the experiment on PC-3 is 0.08 nM; in the experiment on KB-V1, 0.08 nM; in the experiment with K-562 it was 0.15 nM; in the experiment with L-929 [2], 0.2 nM; in the experiment on KB-3.1 [3], 0.35 nM.
`CC(C)C[C@H](NC(=O)[C@H](CCCN=[N+]=[N-])NC(=O)[C@H](Cc1ccc(O)cc1)NC(=O)[C@H](CO)NC(=O)[C@H](Cc1c[nH]c2ccccc12)NC(=O)[C@H](Cc1c[nH]cn1)NC(=O)[C@@H]1CCC(=O)N1)C(=O)N[C@@H](CCCNC(=N)N)C(=O)N1CCC[C@H]1C(=O)NCC(N)=O` [L-Orn-N3-LHRH]: the “antiproliferative activity of the drug-free targeting moiety” value in experiment [1] is “no antiproliferative activity”.
As to `C/C=C/[C@@H]1O[C@H](C(=O)/C=C/C=C(\C)C[C@@H](C)/C=C(C)\C=C\[C@H]2CC=CC(=O)O2)CC(=O)[C@@H]1C` [Compound 15, 16,19-dioxoratjadone], the IC50 turned out to be 17.5 nM at CRM1 (setting [6]); 24.3 nM with L-929 [4] (setting [7]); 3.98 nM in the experiment with KB-3.1 [5] (setting [8]); 1.59 nM in the experiment with SK-OV-3 (setting [9]); 2.87 nM in the experiment on MCF-7 (setting [10]); 9.72 nM in the experiment with A-549 (setting [11]).
For the compound `C/C=C/[C@@H]1O[C@H](C/C=C/C=C/C[C@@H](C)/C=C(\C=C\[C@H]2CC=CC(=O)O2)CC)C[C@@H](O)[C@@H]1C` [Compound 4, Ratjadone D], the IC50 in the experiment on PC-3 is 0.4 nM; with KB-V1 it was 0.3 nM; with K-562, 0.5 nM; in the experiment on L-929 [2] it was 1 nM; in the experiment with KB-3.1 [3], 2 nM.
As to `C/C=C/[C@@H]1O[C@H]([C@@H](O)/C=C/C=C/C[C@@H](C)/C=C(C)\C=C\[C@H]2CC=CC(=O)O2)C[C@@H](O)[C@@H]1C` [Compound 2, Ratjadone B], the IC50 with PC-3 is 0.15 nM; in the experiment with KB-V1 it was 0.15 nM; in the experiment on K-562 it was 0.5 nM; in the experiment with L-929 [2], 0.35 nM; in the experiment on KB-3.1 [3] it was 1 nM.
With `C#CCCOC(=O)N[C@H](/C=C/C=C(\C)C[C@@H](C)/C=C(C)\C=C\[C@H]1CC=CC(=O)O1)[C@@H]1C[C@@H](O)[C@H](C)[C@H](/C=C/C)O1` [Compound 21], the IC50 came to 46.1 nM at CRM1 (setting [6]); 4.5 nM in the experiment on L-929 [4] (setting [7]); 0.47 nM in the experiment with KB-3.1 [5] (setting [8]); 0.45 nM in the experiment with SK-OV-3 (setting [9]); 0.27 nM in the experiment on MCF-7 (setting [10]); 1.25 nM in the experiment with A-549 (setting [11]).
As to `C/C=C/[C@@H]1O[C@H](C(=O)/C=C/C=C(\C)C[C@@H](C)/C=C(C)\C=C\[C@H]2CC=CC(=O)O2)C[C@@H](O)[C@@H]1C` [Compound 13, 16-oxoratjadone], the IC50 on CRM1 (setting [6]) was 52.5 nM; with L-929 [4] (setting [7]), 12.6 nM; in the experiment with L-929 [4] (setting [12]), 12.6 nM; in the experiment with KB-3.1 [5] (setting [8]), 2.57 nM; with SK-OV-3 (setting [9]), 0.24 nM; with MCF-7 (setting [10]) it was 0.22 nM. In the experiment on A-549 (setting [11]), the IC50 is 1.76 nM.
`C/C=C/[C@@H]1O[C@H]([C@@H](N)/C=C/C=C(\C)C[C@@H](C)/C=C(C)\C=C\[C@H]2CC=CC(=O)O2)C[C@@H](O)[C@@H]1C` [Compound 17, 16S-aminoratjadone]: the IC50 at CRM1 (setting [6]) worked out at 2.8 nM; in the experiment on L-929 [4] (setting [7]), 28.4 nM; with L-929 [4] (setting [12]) it was 28.4 nM; in the experiment with KB-3.1 [5] (setting [8]), 1.59 nM; with SK-OV-3 (setting [9]), 0.81 nM; in the experiment on MCF-7 (setting [10]), 0.36 nM. Besides, in the experiment with A-549 (setting [11]), the IC50 is 1.31 nM.

The IC50 is the concentration at which inhibition is half-maximal.
